# According to patent publication US20020155117A1, “METHOD FOR DETECTING ORGAN ALLOGRAFT REJECTION AND USES THEREOF” (priority 1996, published 2002):
# Ends that are not written are not given here.
# Legend:
# Format in all cases: cell-based, human
# [1] = tested on: IL-2 expanded PBMCs of DR11 positive heart allograft recipients; assay: Limiting dilution analysis (LDA) of Th frequency in the periphery, Example 1; details: for T helper cell frequency, circulation: + self PBMC
# Protocol: FIG. 6. Suppression of in vivo activated T cells by high doses of antigen. PBMCs obtained from patient […] on day 55 were expanded in IL-2 for 14 days and then tested in LDA (limiting dilution analysis) for reactivity to pp 22-35 at concentrations of […] in the presence of autologous APCs.
# The LDA study of Th frequency in the periphery was performed using the method described by Zhang et al. (Zhang et al., 1994) with some modifications. PBMCs were plated at 2×10^4, 1×10^4 and 5×10^3 cells per well (24 wells for each concentration) in 0.1 ml medium containing 40 U/ml of rIL-2. On day 7, 0.1 ml fresh medium with rIL-2 was added to each well. After 14 days, each culture was split into 3 aliquots: one was cultured with autologous (patient) irradiated PBMC (5×10^4/well), the second with autologous PBMC plus pp 22-35, and the third with donor spleen cells (5×10^4/well). The cultures were pulsed with [^3H] thymidine ([…]) after 48 hours and harvested 18 hours later.
# To establish whether the reactivity of in vivo activated T cells to peptide 22-35 can be suppressed by high concentrations of antigen the following experiment was performed: PBMC from […] were cultured for 14 days at different cell concentrations in medium with IL-2. Cultures were then tested in the presence of autologous APCs for reactivity to pp 22-35 at concentrations of 1 μM and 15 μM. At 1 μM of antigen there were 8×10^−6 reactive T cells while at 15 μM there was no reactivity (FIG. 6).
# [2] = tested on: T cells infiltrating the graft; assay: Limiting dilution analysis of Th frequency among lymphocytes infiltrating the graft, Example 1; details: patient three, + self PBMC
# From the text: Biopsy tissue was washed twice with medium supplemented with 5 u/ml rIL-2. Cell growth was checked everyday. The medium was changed twice a week. T cells infiltrating the graft were further expanded in medium with rIL-2 for 7-14 days. When the cell number reached 1×10^6, they were harvested and plated at 400, 200 and 100 cells per well in the presence of autologous PBMC (5×10^4/per well) in 24 replicate cultures. Cultures were maintained and assayed for reactivity as described above. The precursor frequency of Th cells recognizing pp 22-35 and donor spleen cells was analyzed by Poisson statistics (Liu et al., 1992; and Zhang et al., 1994).
# TCL LZ-anti-pp 21-42 = assay: Proliferation assay of TCL LZ-anti-pp 21-42; design: stimulation of TCL anti-pp 21-42 by overlapping 14-mer peptides: dose or concentration left out as unconfirmed
# Protocol: (§1) FIGS. 1A and 1B. Reactivity of TCLs to the immunizing peptides and to r DR1 proteins. The TCL LZ-anti-pp 1-20 […] and TCL LZ-anti-pp 21-42 […] were tested for reactivity to various concentrations of rDR1 protein and pp 1-20 pr pp 21-42 using 2×10^4 responding cells and 5×10^4 irradiated autologous APCs per well. Cultures were labeled after 48 hours and harvested 18 hours later. Results are expressed as mean cpm of triplicate cultures. The standard deviation of measure was less than 10%.
# (§2) FIGS. 2A and 2B. HLA-DR restriction of peptide recognition by TCLs. The TCL LZ-anti-pp 1-20 (FIG. 2A) and TCL LZ-anti-pp 21-42 (FIG. 2B) were stimulated with […] peptide (pp 1-20 for LZ-anti-pp 1-20 and pp 21-42 for LZ-anti-pp 21-42) in the presence of autologous and allogeneic APCs sharing with the responder one or no DR antigen. Assays were done as described in the description of FIGS. 1A and 1B.
# FIG. 3. Determination of the core epitope of the dominant determinant of DR1 molecule. TCL LZ-anti-pp 21-42 was stimulated in individual cultures with nine overlapping 14-mer peptides ([…]) moving along residues 21-42 in single residue steps. The reactions were set up as described in the description of FIGS. 1A and 1B.
# FIG. 4. Suppression of TCL reactivity by high concentrations of antigen. The proliferative response of TCL LZ-anti-pp 21-42 was tested as described in the description of FIGS. 1A and 1B using different concentrations of pp 22-35. The response was abolished at a concentration […].
# (§3) T cells were grown in 24 well plates (Nunc, Inc., Naperville, Ill.) in RPM1 1640 medium supplemented with 10% human AB serum, […] L-glutamine, and 50 μg/ml gentamicin (Gibco, Grand Island, N.Y.). On day 10, rIL-2 was added at 5 μ/ml. Fourteen days after priming, T cells were collected, washed and restimulated at 10^6/ml with antigen, in culture medium containing rIL-2 (20 u/ml) and irradiated (3000 rad) autologous PBMCs (2×10^6/ml). Following three stimulations, two TCLs, named LZ-anti-pp1-20 and LZ-anti-pp21-42, were obtained.
# (§4) Responding T cells (2×10^4/well) were cultured with irradiated APCs of responder or stimulator origin (5×10^4/well) in round bottom microtiter plates (Nunc Inc., Naperville, Ill.). Antigens were added to the cultures at the concentrations indicated. [^3H] thymidine (1 μCi/well) was added after 48 hours, and the cultures were harvested 18 hours later. [^3H] thymidine incorporation was measured in an LK Betaplate liquid scintillation counter (Wallace, Inc., Gaithersburg, Md.). Mean cpm in triplicate cultures and standard deviation of the mean were calculated.
# The immune response of mature T cells can paradoxically be suppressed by high doses of antigen (Suzuki et al., 1988; and Critchfield et al, 1994). The possibility of suppressing indirect allorecognition was explored by testing the reactivity of TCL LZ-anti-pp 21-42 to increasing concentrations of pp 22-35 in the presence of autologous APC. The reactivity of the line started to decline when the concentration of the peptide was increased above 3 μM (FIG. 4).
# (§5) T cells cultured with 27 μM of pp 22-35 lost viability (>90% Preputium iodide positive) within 72 hours, while T cells grown with high concentration of the irrelevant peptide alone were unaffected
# [3] = tested on: TCL LZ-anti-pp 21-42 T cells; assay: Viability of T cells cultured with high peptide concentration (Preputium iodide); details: high concentration of the irrelevant peptide alone
# Protocol: as §5
# TCL-PR = assay: Proliferative response of TCL-PR to DR4 peptide
# From the text: The identification of the core epitope of the DR4/69-88 peptide has been accomplished. […] The peptide KRAAVDTYCRHNYG carries the expected anchor residues required by the peptide binding motif of the DTRβ1*1101 restriction molecule (i+7) as well as the TCR contact residues involved in the stimulation of TCL-PR.
# The objective of these studies is to establish whether high doses of dominant peptide are tolerogenic. To increase resistance against enzymatic degradation D-Lysine is placed at the N-terminus and the C-terminus is amidated. We have established that the optimal dose of the dominant peptide (4/71-84) required for inducing maximal proliferation of TCR-PR is 5 μg/ml or approximately 5×10^−7M. Increasing concentration of peptide 4/71-84 (ranging from 10^−8 to 10^−4M) may be used to determine the dose required to reduce proliferation to the background values observed in cultures with APCs and no peptide. The viability of the cells will be assayed and physiological studies will be performed to determine whether the lack of proliferation results from the induction of enery of apoptosis.
# TCL LZ-anti-pp 1-20 = assay: Proliferation assay of TCL LZ-anti-pp 1-20
# Protocol: as §1
# as §2, with “1B. […]” for “1B.”
# as §4, with “Antigens were added to the cultures at the concentrations indicated. [^3H] thymidine (1 μCi/well) was added after 48 hours, and the cultures were harvested 18 hours later.” left out
# [4] = tested on: PBMC from a responder (LZ), expressing HLA-DR β1*1101/1201; assay: In vitro immunization of PBMC from responder LZ with DR1 peptides (blastogenesis with autologous APCs); details: peptide 5 μg/ml
# Protocol: Development of Allo-peptide Specific T Cell Lines for Epitope Mapping. PBMCs (at 10^6/ml) from a healthy person ([…]) with HLA-DRβ1*1101/1201 genotype were primed in individual cultures (Liu et al., 1992) with each or the following seven DR1 peptides(5 μg/ml) spanning the first domain of the Drβ1*0101 chain:
# as §3
# To monitor indirect recognition in allograft recipients, a determination was made as to whether T cell recognize one or more peptides resulting from the processing of an allogeneic MHC molecule by responder APCs. For this, in vitro PBMC were immunized from a responder (LZ), expressing HLA-DR β1*1101/1201, with seven partially overlapping peptides corresponding to the first domain of the Drβ1*0101 molecule. […] The resulting T cell lines were tested for their ability to recognize native rDR1 molecule at various protein concentrations.
substance,measurement,setting,value
"ERVRLLERCIYNQE [pp 22-35, ERVRLLERCIYNQE]",reactive T cells in LDA at low antigen concentration,"[1]; patient PBMC (day 55), 1 μM of antigen, autologous APCs, FIG. 6",8×10^−6
same,reactive T cells in LDA at high antigen concentration,"[1]; patient PBMC (day 55), 15 μM of antigen, autologous APCs, FIG. 6",no reactivity
same,"T helper cell frequency, circulation","[1]; patient one, 1 Mo after transplantation",0
same,"T helper cell frequency, circulation","[1]; patient one, 12 Mo after transplantation (chronic rejection)",6×10^−6
same,"T helper cell frequency, circulation","[1]; patient one, 12 Mo after transplantation (chronic rejection), listed as pp22-35",6.0 × 10^−6
same,"T helper cell frequency, circulation","[1]; patient three, 27 d after transplantation",0
same,"T helper cell frequency, circulation","[1]; patient three, 41 d after transplantation",7.4×10^−6
same,"T helper cell frequency, circulation","[1]; patient three, 41 d after transplantation, listed as pp22-35",7.4 × 10^−6
same,"T helper cell frequency, circulation","[1]; patient three, 55 d after transplantation (acute rejection), listed as pp22-35",8.0 × 10^−6
same,"T helper cell frequency, circulation","[1]; patient three, 55 d after transplantation (acute rejection), listed as pp-22-35",8×10^−6
same,"T helper cell frequency, circulation","[1]; patient three, 82 d after transplantation (acute rejection), listed as pp22-35",6.5 × 10^−6
same,"T helper cell frequency, circulation","[1]; patient three, 82 d after transplantation (acute rejection), listed as pp-22-35",6.5e-06
same,"T helper cell frequency, circulation","[1]; patient two, 12 Mo after transplantation",failed to react
same,"T helper cell frequency, circulation","[1]; patient two, 12 Mo after transplantation, listed as pp22-35",0
same,"T helper cell frequency, graft",[2]; 55 d biopsy,4.3×10^−4
same,"T helper cell frequency, graft","[2]; 55 d biopsy, listed as pp22-35",4.3 × 10^−4
same,"T helper cell frequency, graft",[2]; 82 d biopsy,3.3×10^−4
same,"T helper cell frequency, graft","[2]; 82 d biopsy, listed as pp22-35",3.3 × 10^−4
same,peptide concentration at which the proliferative response was abolished,TCL LZ-anti-pp 21-42; FIG. 4 legend,27 µM
same,peptide concentration above which reactivity of the line started to decline,"TCL LZ-anti-pp 21-42; autologous APC, FIG. 4",above 3 μM
same,peptide concentration for complete suppression of TCL reactivity,"TCL LZ-anti-pp 21-42; autologous APC, FIG. 4",27 µM
same,stimulation of TCL anti-pp 21-42 by overlapping 14-mer peptides,"TCL LZ-anti-pp 21-42; autologous APCs, FIG. 3",stimulated strongly
same,TCL-ZL response to pp 22-35,TCL LZ-anti-pp 21-42; pp 22-35,17×10^3 cpm
"K G N N D E S N I S F K E K D (KGNNDESNISFKEKD) [NDA4-derived peptide, irrelevant synthetic peptide corresponding to the N-terminus of the NDA4 molecule, reference compound]",TCL-ZL response to pp 22-35 in the presence of irrelevant peptide,TCL LZ-anti-pp 21-42; pp 22-35 at plus NDA4-derived peptide at 30-50 μM,15-17×10^3 cpm
same,viability of T cells grown with peptide alone,[3],unaffected
K R A A V D T Y C R H N Y G (KRAAVDTYCRHNYG) [4/71-84],optimal dose required for inducing maximal proliferation of TCR-PR,TCL-PR,5 μg/ml and approximately 5×10^−7 M
same,potency in stimulating the proliferative response of TCL-PR (core epitope of DR4/69-88),TCL-PR,most potent
"GDTRPRFLWQLKFECHFFNG (GDTRPRFLWQLKFECHFFNG) [pp 1-20, residues 1-20 of Drβ1*0101 chain]",reactivity of TCL LZ-anti-pp 1-20,"TCL LZ-anti-pp 1-20; autologous APCs, various concentrations, FIG. 1",stimulated strongly
same,HLA-DR restriction of peptide recognition by TCL anti-pp 1-20,"TCL LZ-anti-pp 1-20; autologous and allogeneic APCs, FIG. 2A",only when presented by APCs carrying the Drβ1*1101 allele
same,blastogenesis after in vitro immunization of PBMC,[4],elicited blastogenesis
"TERVRLLERCIYNQEESVREDS (TERVRLLERCIYNQEESVREDS) [pp 21-42, residues 21-42 of Drβ1*0101 chain]",reactivity of TCL LZ-anti-pp 21-42,"TCL LZ-anti-pp 21-42; autologous APCs, various concentrations, FIG. 1B",reacted vigorously
same,HLA-DR restriction of peptide recognition by TCL anti-pp 21-42,"TCL LZ-anti-pp 21-42; autologous and allogeneic APCs, FIG. 2B",only when presented by APCs carrying the Drβ1*1101 allele
same,blastogenesis after in vitro immunization of PBMC,[4],elicited blastogenesis
